Consider 11 molecules from patent publication US9357776B2, “Method for producing pest control agent” (priority 2011, dated 2016).

Some results are limits rather than exact numbers.

Series [1] concerns Aphis gossypii. Briefly: Test for control of cotton aphid (leaf disk). It counts as in vivo. Conditions: in Cucumis sativus, foliar, 72 h, read-out: Mortality rate, Aphis gossypii. How it is done:
(§1) A leaf disk having a diameter of 2.0 cm was cut out from cucumber (Cucumis sativus L.) grown in a pot. Then, a liquid agent prepared to be 50% acetone-water (to which 0.05% Tween20 was added) and to contain 500 ppm of a compound represented by formula (I) was spread over the leaf disk. After the leaf disk was air dried, first instar larvae were released on the leaf disk. After that, the leaf disk was allowed to stand in a thermostatic chamber at 25° C. (16-hour light period and 8-hour dark period). […] The test was duplicated. Mortality rate (%)=[Number of dead insects/(Number of survived insects+Number of dead insects)]×100

Series [2] concerns crude enzyme extraction liquid of housefly (Musca domestica). The series is described as follows: In vitro metabolism test using crude enzyme extraction liquid of housefly. Conditions: 25° C., 40 hours, LC/MS. It is filed as in vitro ADME. How it is done: As described in Pest Management Science (2003), 59(3), 347-352, and Journal of Pesticide Science (2004), 29(2), 110-116, imidacloprid is known to be inactivated by oxidative metabolism, which is thought to be one of the mechanisms for the acquisition of the resistance. To investigate effects on insects acquiring such resistance, the following experiment was carried out.
To adult housefly (Musca domestica) (0.645 g), 10 ml of a potassium phosphate buffer (pH 7.4, containing 1 mM EDTA) was added, and the adult housefly was sufficiently ground with Physcotron (Nichion Irika Kikai Seisakusho). After that, the ground material was centrifuged under conditions of 10,000 g and 15 minutes. The obtained supernatant was further centrifuged under conditions of 100,000 g and 60 minutes. Thus, precipitates were obtained. The precipitates were dissolved in 1 ml of a potassium phosphate buffer, and this solution was used as a crude enzyme solution. The enzyme extraction operations were all conducted on ice or under a condition of 4° C.
Reagents were mixed with each other at the following ratio in a tube having a capacity of 1.5 mL, and allowed to react with each other at 25° C. for 40 hours. After the reaction, 1 mL of acetone was added to the mixture, followed by stirring. Then, the formed precipitates were removed by centrifugation at 12000 rpm for 5 minutes. […]

Series [3] relates to Plutella xylostella. The series is described as follows: Test for control of diamondback moth (leaf disk). It is filed as in vivo. The following applies: in Brassica oleracea, foliar, 72 h, read-out: Mortality rate, Plutella xylostella. As to the method: as §1, with “5.0” for “2.0”, “cabbage” for “cucumber (Cucumis sativus L.)”, “second” for “first”
For series [4], the system named is Laodelphax striatellus. The series is described as follows: Test for control of Laodelphax striatellus, sensitive and resistant strains (rice soil drench). It is filed as in vivo. The following applies: three days after release. As to the method:
(§2) Rice plant seedlings grown in a pot were treated by soil drench with a liquid agent prepared to be 10% acetone-water, and to contain a predetermined concentration of a compound of the present invention. Three days after the treatment, 10 sensitive or resistant strain of second instar larvae of Laodelphax striatellus were released on each of the rice plant seedlings. After that the rice plant seedlings were allowed to stand in a thermostatic chamber at 25° C. (16-hour light period and 8-hour dark period). […] The test was duplicated. Mortality rate (%)=[Number of dead insects/(Number of survived insects+Number of dead insects)]×100
Note that the pests tested were insects bred for generations in a room for a long period (sensitive strain), and insects collected in Kumamoto Prefecture in 2006, and bred for generations in a room (field-collected strain: resistant strain).

Series [5] relates to Haemaphysalis longicornis. The series is described as follows: Test for control of Haemaphysalis longicornis (dry film in glass vial). It is filed as in vivo. Conditions: 24 h, read-out: Mortality rate. How it is done:
Into a glass vial having a capacity of 4 mL, 30 μL of an acetone solution containing 200 ppm or 10 ppm of a compound of the present invention was introduced. The vial was placed on a shaker, and air dried, while being rotated. Thus, a dry film of the compound was formed on the inner wall of the vial. After the vial was dried for 24 hours or longer, 10 larvae of Haemaphysalis longicornis were released in the vial, and then the vial was capped. The vial was allowed to stand in a thermostatic chamber under conditions of 25° C., a humidity of 85%, and total darkness. […] The test was duplicated. Mortality rate (%)=[Number of dead insects/(Number of survived insects+Number of dead insects)]×100

For series [6], the system named is Laodelphax striatellus. The series is described as follows: Test for control of Laodelphax striatellus (wheat seedling root treatment). Conditions: 96 h, read-out: Mortality rate, Laodelphax striatellus. It is filed as in vivo. How it is done: Roots of wheat seedlings 48 hours after seeding were each treated with 200 μL of a liquid agent prepared to be 10% acetone-water, and to contain 100 ppm of a compound represented by formula (I). The agent was absorbed through the roots for 72 hours, and then 10 second instar larvae of Laodelphax striatellus were released on each wheat seedling. After that, the wheat seedlings were allowed to stand in a thermostatic chamber at 25° C. (16-hour light period and 8-hour dark period). […] The test was duplicated.

The test system of series [7] is Nilaparvata lugens. Briefly: Test for control of Nilaparvata lugens, sensitive and resistant strains (rice soil drench). Conditions: three days after release. It counts as in vivo. How it is done:
as §2, with “Nilaparvata lugens” for “Laodelphax striatellus”, “that,” for “that”
Note that the pests tested were as follows: Insects bred for generations in a room for a long period (sensitive strain), (I) Insects collected in Kumamoto Prefecture in 2007, and bred for generations in a room (field-collected strain: resistant strain), or (II) Insects collected in Fukuoka Prefecture in 2005, and bred for generations in a room (field-collected strain).

Series [8] relates to Haemaphysalis longicornis. The series is described as follows: Effect of controlling Haemaphysalis longicornis on body surface of mouse. It is filed as in vivo. Conditions: mouse (ICR, male), 20 μL of 1000-fold diluted drop preparation (48% by weight Compound 1 in ethanol), three days after release. As to the method:
Hair on the back of a mouse (ICR, male, 5-weeks old) in a region having a diameter of approximately 2 cm was shaved, and a 15-mL polystyrene conical tube cut to have a height of approximately 1.5 cm was bonded to this region with an instant adhesive.
Then, 20 μL of a 1000-fold diluted liquid of a pest control agent prepared according to the following formulation was added dropwise onto the body surface of the mouse within the bonded tube. After sufficient drying, […] larvae of Haemaphysalis longicornis were released into the tube, and the tube was capped.
Formulation [Drop Preparation]
The components were uniformly mixed with each other, and a drop preparation was obtained. blood-sucking inhibition rate (%)=100−[Number of […]/(Number of survived ticks+Number of dead ticks)]×100

The mark [9] stands for this setting: 0.005 mg/seedling, all the strains.
Where [10] appears, read: 0.01 mg/seedling, sensitive strain.
The mark [11] stands for this setting: 0.01 mg/seedling, strain (II) (Fukuoka 2005, field-collected).
Where [12] appears, read: 0.01 mg/seedling, field-collected strain (Kumamoto 2006, resistant).

`O=C(N=c1ccccn1Cc1ccc(Cl)nc1)C(F)(F)F` [Compound 1, N-[1-((6-Chloropyridin-3-yl)methyl)pyridin-2(1H)-ylidene]-2,2,2-trifluoroacetamide]: the mortality at 500 ppm in series [1] and in series [3] was 100% in each case. The “total area percentage of metabolites” value in series [2] was determined as 0.08. Also, the Mortality rate is reported as not below 90% in series [4] (setting [9]); not below 90% in series [7] (setting [9]); 100% in series [7] (0.05 mg/seedling, all the strains). Further, the mortality at 10 ppm in series [5] was not below 80%. Besides, the mortality at 200 ppm in series [5] is not below 80%. The mortality at 100 ppm in series [6] is 100%. The blood-sucking inhibition rate in series [8] turned out to be 91%.

As to `O=C(N=c1ccccn1Cc1cnc(Cl)c(F)c1)C(F)(F)F` [Compound 2, N-[1-((6-Chloro-5-fluoropyridin-3-yl)methyl)pyridin-2(1H)-ylidene]-2,2,2-trifluoroacetamide], the mortality at 500 ppm in series [1] and in series [3] was 100% throughout. Further, the mortality at 100 ppm in series [6] came out at 100%. Also, the Mortality rate in series [7] (setting [10]) was 72%; in series [7] (setting [11]) it was 70%.

As for `O=C(N=c1ccccn1Cc1ccc(Br)nc1)C(F)(F)F` [Compound 3, N-[1-((6-Bromopyridin-3-yl)methyl)pyridin-2(1H)-ylidene]-2,2,2-trifluoroacetamide], the mortality at 500 ppm in series [1] and in series [3] was 100% each time. Further, the Mortality rate in series [4] (setting [12]) amounted to 90%; in series [4] (setting [10]), 100%. Besides, in series [6], the mortality at 100 ppm was 100%.

For the molecule `O=C(N=c1ccccn1Cc1ccc(Cl)nc1)C(F)(F)Cl` [Compound 4, 2-chloro-N-[1-((6-Chloropyridin-3-yl)methyl)pyridin-2(1H)-ylidene]-2,2-difluoroacetamide], the mortality at 500 ppm in series [1] and in series [3] was 100% throughout. Moreover, in series [6], the mortality at 100 ppm was 100%.

Consider `O=C(N=c1ccccn1Cc1ccc(Cl)nc1)C(Cl)(Cl)Cl` [Compound 5, 2,2,2-Trichloro-N-[1-((6-chloropyridin-3-yl)methyl)pyridin-2(1H)-ylidene]acetamide], for which the values for the mortality at 500 ppm in series [1] and in series [3] were 95% and 100%, respectively. In addition, the mortality at 100 ppm in series [6] was found to be 75%.

Turning to `O=C(N=c1ccccn1Cc1cnc(Cl)nc1)C(F)(F)F` [Compound 6, N-[1-((2-Chloropyrimidin-5-yl)methyl)pyridin-2(1H)-ylidene]-2,2,2-trifluoroacetamide], the mortality at 500 ppm in series [1] and in series [3] was 100% throughout. Also, in series [6], the mortality at 100 ppm is 100%.

As to `O=C(N=c1ccccn1Cc1ccc(Cl)nc1)C(F)(F)C(F)(F)F` [Compound 7, N-[1-((6-Chloropyridin-3-yl)methyl)pyridin-2(1H)-ylidene]-2,2,3,3,3-pentafluoropropanamide], the mortality at 500 ppm in series [1] and in series [3] was 100% in each case. Further, the mortality at 100 ppm in series [6] is 100%.

`O=C(N=c1ccccn1Cc1ccc(Cl)nc1)C(F)F` [Compound 8, N-[1-((6-Chloropyridin-3-yl)methyl)pyridin-2(1H)-ylidene]-2,2-difluoroacetamide]: the mortality at 500 ppm in series [1] and in series [3] was 100% throughout. Also, the mortality at 100 ppm in series [6] was determined as 100%.

Consider `O=C(N=c1ccccn1Cc1ccc(F)nc1)C(F)(F)F` [Compound 19, N-[1-((6-fluoropyridin-3-yl)methyl)pyridin-2(1H)-ylidene]-2,2,2-trifluoroacetamide], for which the mortality at 500 ppm in series [1] and in series [3] was 100% throughout. Besides, the mortality at 100 ppm in series [6] came out at 100%. Besides, the Mortality rate in series [7] (setting [10]) is 100%; in series [7] (setting [11]) it was 93%.

As for `N#Cc1nn(-c2c(Cl)cc(C(F)(F)F)cc2Cl)c(N)c1[S+]([O-])C(F)(F)F` (stereo not shown) [fipronil], the Mortality rate in series [4] (setting [12]) is recorded as 70%; in series [4] (setting [10]) it was 100%.

As to `O=[N+]([O-])NC1=NCCN1Cc1ccc(Cl)nc1` [imidacloprid, reference compound], the “total area percentage of metabolites” value in series [2] is given as 2.55. The Mortality rate came out at 50% in series [4] (setting [12]); 100% in series [4] (setting [10]); 100% in series [7] (0.05 mg/seedling, sensitive strain); 40% in series [7] (0.05 mg/seedling, strain (I) (Kumamoto 2007, resistant strain)); 60% in series [7] (0.05 mg/seedling, strain (II) (Fukuoka 2005, field-collected)). In addition, the mortality at 10 ppm in series [5] was determined as 4%.
